Tested on: 699152-130-R-J1-PDC complex spheroid growth
Assay: Anticancer human tumor 699152-130-R-J1-PDC patient-derived pancreatic carcinoma cell line growth inhibition [AhR]
Conditions: for IC50: curve of first compound; for viability, T/C: stronger effect = lower value
Excerpt: Multicellular complex tumor spheroid response to aryl hydrocarbon receptor antagonists in combination with a variety of drugs and investigational agents in selected tumor cell lines
The current study was undertaken to assess response to aryl hydrocarbon receptor antagonists in combination with standard-of-care drugs and investigational agents in solid tumor complex spheroid models. Complex spheroids include a stromal component modeled by human endothelial cells (HUVEC) and fibroblasts modeled by human mesenchymal stem cells (MSCs). The concentration ranges selected for each drug and investigational agent were based upon clinically achievable concentrations if the clinical Cmax of the agent was known.
Compounds. The drugs and investigational agents: BAY 2416964 (NSC825713), GNF351 (NSC835774), CH-223191 (NSC835775), CPI-455 (NSC825282), aza-TdCyd (NSC777586), decitabine (NSC127716), belinostat (NSC758774), entinostat (NSC756642), pevonedistat (NSC761192), tazemetostat (NSC777109), talazoparib (NSC765396), olaparib (NSC753686), selinexor (NSC780203), nedisertib (M3814, NSC802822), bortezomib (NSC756655), venetoclax (NSC766270), doxorubicin (NSC123127), elimusertib (BAY189344, NSC800525), ceralasertib (AZD6738, NSC777638), TAK-243 (NSC785004), alisertib (NSC759677), etoposide (NSC141540), topotecan (NSC609699), eribulin (NSC707389), gemcitabine (NSC613327), carboplatin (NSC241240), cisplatin (NSC119875), and SN-38 (NSC673596) were obtained from the National Cancer Institute (NCI) Developmental Therapeutics Program Chemical Repository (32). The FDA-approved anticancer drug set is available from the Developmental Therapeutics Program at https://dtp.cancer.gov/organization/dscb/obtaining/available plates.htm. […] The stock solutions were prepared in dimethyl sulfoxide (DMSO, Sigma-Aldrich, St. Louis, MO, cat. D2650), except for the platinum compounds which were prepared in saline (Quality Biological, Gaithersburg, MD, cat. 114-055-101), at 800-fold the tested concentration and stored at -70 degrees C prior to their use. All drugs and investigational agents were tested over a range starting from a high concentration at or near the clinical Cmax and decreasing in half-log increments. If the clinical Cmax for an agent had not been determined, the highest concentration tested was 10 microM (Table 1).
Cell Culture. All cells were maintained in an incubator at 37 degrees C and 5% CO2 with 95% humidity. The PDC lines were cultured according to standard operating procedures established by the NCI PDMR (https://pdmr.cancer.gov). Briefly, all PDCs were thawed and cultured in Matrigel-coated flasks prepared with a working solution of 1X Ham's F-12 nutrient mix, without supplementation (Invitrogen, Waltham, MA, cat. 11765054), 100 U/mL penicillin-streptomycin (Invitrogen, cat. 15140122), and 2.5% Matrigel (Corning Inc., Corning, NY, cat. 354248) for the first three passages. All PDCs were cultured in complete DMEM/F-12 media containing advanced DMEM/F-12 (Invitrogen, cat. 12634028), 4.9% defined fetal bovine serum, heat inactivated (HyClone Laboratories Inc., Logan, UT, cat. SH30070.03HI), 389 ng/mL hydrocortisone (Sigma-Aldrich, cat. H4001), 9.7 ng/mL human EGF recombinant protein (Invitrogen, cat. PHG0313), 23.4 microg/mL adenine (Sigma-Aldrich, cat. A2786), 97.3 U/mL penicillin-streptomycin (Invitrogen, cat. 15140122), 1.9 mM L-glutamine (Invitrogen, cat. 25030081), and 9.7 microM Y-27632 dihydrochloride (Tocris Bioscience, Bristol, United Kingdom, cat. 1254). The PDCs were cultured in complete DMEM/F12 media without 10 microM Y-27632 dihydrochloride for at least two passages prior to the screen. The established cell lines NCI-H1341 and […] were cultured in DMEM/F-12, HEPES (Invitrogen, cat. 11330032), 5% defined fetal bovine serum (HyClone Laboratories Inc., cat. SH30070.03), ITS premix universal culture supplement [insulin (5 microg/mL), transferrin (5 microg/mL), and selenious acid (5 ng/mL)] […]

[1] = second compound 0.1 µM, first compound 0.0316 µM
[2] = second compound 0.1 µM, first compound 0.1 µM
[3] = second compound 0.1 µM, first compound 0.316 µM
[4] = second compound 0.1 µM, first compound 1 µM
[5] = second compound 0.1 µM, first compound 3.16 µM
[6] = second compound 0.1 µM, first compound 10 µM
[7] = second compound 0.316 µM, first compound 0.0316 µM
[8] = second compound 0.316 µM, first compound 0.1 µM
[9] = second compound 0.316 µM, first compound 0.316 µM
[10] = second compound 0.316 µM, first compound 1 µM
[11] = second compound 0.316 µM, first compound 3.16 µM
[12] = second compound 0.316 µM, first compound 10 µM
[13] = second compound 1 µM, first compound 0.0316 µM
[14] = second compound 1 µM, first compound 0.1 µM
[15] = second compound 1 µM, first compound 0.316 µM
[16] = second compound 1 µM, first compound 1 µM
[17] = second compound 1 µM, first compound 3.16 µM
[18] = second compound 1 µM, first compound 10 µM
[19] = second compound 3.16 µM, first compound 0.0316 µM
[20] = second compound 3.16 µM, first compound 0.1 µM
[21] = second compound 3.16 µM, first compound 0.316 µM
[22] = second compound 3.16 µM, first compound 1 µM
[23] = second compound 3.16 µM, first compound 3.16 µM
[24] = second compound 3.16 µM, first compound 10 µM
[25] = second compound 10 µM, first compound 0.0316 µM
[26] = second compound 10 µM, first compound 0.1 µM
[27] = second compound 10 µM, first compound 0.316 µM
[28] = second compound 10 µM, first compound 1 µM
[29] = second compound 10 µM, first compound 3.16 µM
[30] = second compound 10 µM, first compound 10 µM
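Note: compound exposure lasted 7 days after spheroids had grown for 3 days.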

With `CC(C)CC(NC(=O)C(Cc1ccccc1)NC(=O)c1cnccn1)B(O)O` (stereo not given) + CC(CO)NC(=O)c1cc(-c2ccc(Cl)cc2)nn(-c2cnn(C)c2)c1=O the IC50 (second compound 0.1 µM) was 0.00584 µM, the IC50 (second compound 0.316 µM) was 0.00584 µM and the IC50 (second compound 1 µM) was 0.00539 µM. For the same molecule, the IC50 (second compound 3.16 µM) was 0.00546 µM, the IC50 (second compound 10 µM) was 0.00513 µM and the viability, T/C (second compound 0.1 µM, first compound 0.000949 µM) was 91.3%. For the same molecule, the viability, T/C (second compound 0.1 µM, first compound 0.003 µM) was 102%, the viability, T/C (second compound 0.1 µM, first compound 0.00949 µM) was 16% and the viability, T/C (second compound 0.1 µM, first compound 0.03 µM) was 1.65%. The viability, T/C (second compound 0.1 µM, first compound 0.0949 µM) was 10.5%, the viability, T/C (second compound 0.1 µM, first compound 0.3 µM) was 0.88% and the viability, T/C (second compound 0.316 µM, first compound 0.000949 µM) was 92.5%. It also gave a viability, T/C (second compound 0.316 µM, first compound 0.003 µM) of 115%, a viability, T/C (second compound 0.316 µM, first compound 0.00949 µM) of 10.9% and a viability, T/C (second compound 0.316 µM, first compound 0.03 µM) of 0.58%. The viability, T/C (second compound 0.316 µM, first compound 0.0949 µM) was 0.4%, the viability, T/C (second compound 0.316 µM, first compound 0.3 µM) was 0.53% and the viability, T/C (second compound 1 µM, first compound 0.000949 µM) was 100%. It also gave a viability, T/C (second compound 1 µM, first compound 0.003 µM) of 86.1%, a viability, T/C (second compound 1 µM, first compound 0.00949 µM) of 15.2% and a viability, T/C (second compound 1 µM, first compound 0.03 µM) of 3.08%. It also gave a viability, T/C (second compound 1 µM, first compound 0.0949 µM) of 0.35%, a viability, T/C (second compound 1 µM, first compound 0.3 µM) of 0.5% and a viability, T/C (second compound 3.16 µM, first compound 0.000949 µM) of 80.9%. For the same molecule, the viability, T/C (second compound 3.16 µM, first compound 0.003 µM) was 92.5%, the viability, T/C (second compound 3.16 µM, first compound 0.00949 µM) was 16.2% and the viability, T/C (second compound 3.16 µM, first compound 0.03 µM) was 1.89%. The viability, T/C (second compound 3.16 µM, first compound 0.0949 µM) was 1.77%, the viability, T/C (second compound 3.16 µM, first compound 0.3 µM) was 5.12% and the viability, T/C (second compound 10 µM, first compound 0.000949 µM) was 74.7%. The viability, T/C (second compound 10 µM, first compound 0.003 µM) was 90.8%, the viability, T/C (second compound 10 µM, first compound 0.00949 µM) was 12.6% and the viability, T/C (second compound 10 µM, first compound 0.03 µM) was 1.86%. For the same molecule, the viability, T/C (second compound 10 µM, first compound 0.0949 µM) was 0.41% and the viability, T/C (second compound 10 µM, first compound 0.3 µM) was 0.56%.
`Nc1ccccc1NC(=O)c1ccc(CNC(=O)OCc2cccnc2)cc1` + CC(CO)NC(=O)c1cc(-c2ccc(Cl)cc2)nn(-c2cnn(C)c2)c1=O showed an IC50 (second compound 0.1 µM) of 8.23 µM, an IC50 (second compound 0.316 µM) of 6.81 µM and an IC50 (second compound 1 µM) of 7.78 µM. For the same molecule, the IC50 (second compound 3.16 µM) was 7.59 µM, the IC50 (second compound 10 µM) was 6.07 µM and the viability, T/C [1] was 98.3%. For the same molecule, the viability, T/C [2] was 99.1%, the viability, T/C [3] was 99.3% and the viability, T/C [4] was 99.2%. The viability, T/C [5] was 72.6%, the viability, T/C [6] was 45.4% and the viability, T/C [7] was 97.3%. The viability, T/C [8] was 110%, the viability, T/C [9] was 107% and the viability, T/C [10] was 91.3%. For the same molecule, the viability, T/C [11] was 78%, the viability, T/C [12] was 36.5% and the viability, T/C [13] was 97.7%. For the same molecule, the viability, T/C [14] was 91.4%, the viability, T/C [15] was 98.4% and the viability, T/C [16] was 92.9%. The viability, T/C [17] was 71%, the viability, T/C [18] was 44.1% and the viability, T/C [19] was 90.2%. The viability, T/C [20] was 84.7%, the viability, T/C [21] was 97.2% and the viability, T/C [22] was 82.2%. It also gave a viability, T/C [23] of 74.1%, a viability, T/C [24] of 42.4% and a viability, T/C [25] of 96%. For the same molecule, the viability, T/C [26] was 88%, the viability, T/C [27] was 86.1% and the viability, T/C [28] was 83.7%. For the same molecule, the viability, T/C [29] was 70.8% and the viability, T/C [30] was 34.4%.
With `O=C(C=Cc1cccc(S(=O)(=O)Nc2ccccc2)c1)NO` + CC(CO)NC(=O)c1cc(-c2ccc(Cl)cc2)nn(-c2cnn(C)c2)c1=O the IC50 (second compound 0.1 µM) was > 10 µM, the IC50 (second compound 0.316 µM) was > 10 µM and the IC50 (second compound 1 µM) was > 10 µM. For the same molecule, the IC50 (second compound 3.16 µM) was > 10 µM, the IC50 (second compound 10 µM) was > 10 µM and the viability, T/C [1] was 102%. It also gave a viability, T/C [2] of 102%, a viability, T/C [3] of 111% and a viability, T/C [4] of 112%. The viability, T/C [5] was 96.8%, the viability, T/C [6] was 79.1% and the viability, T/C [7] was 92.8%. The viability, T/C [8] was 107%, the viability, T/C [9] was 111% and the viability, T/C [10] was 106%. For the same molecule, the viability, T/C [11] was 102%, the viability, T/C [12] was 76.2% and the viability, T/C [13] was 90.2%. The viability, T/C [14] was 96.8%, the viability, T/C [15] was 104% and the viability, T/C [16] was 101%. The viability, T/C [17] was 94.3%, the viability, T/C [18] was 82.6% and the viability, T/C [19] was 84.2%. The viability, T/C [20] was 83.8%, the viability, T/C [21] was 93.9% and the viability, T/C [22] was 95.4%. The viability, T/C [23] was 84%, the viability, T/C [24] was 83.9% and the viability, T/C [25] was 85%. The viability, T/C [26] was 95.4%, the viability, T/C [27] was 81.7% and the viability, T/C [28] was 89.4%. For the same molecule, the viability, T/C [29] was 90.5% and the viability, T/C [30] was 79.4%.

From PubChem BioAssay AID1919001 (Molecular Pharmacology Branch, DTP, NCI, 2023)
